Results: article PMC9695592, “Phenotypic Evaluation of Nucleoside Analogues against Trypanosoma cruzi Infection: In Vitro and In Vivo Approaches” (Molecules, 2022)

Key:
[1] = tested on: intracellular forms of T. cruzi (Y strain) in 2D H9C2; assay: Activity against T. cruzi (Y strain) infection of H9C2 monolayers (2D); format: cell-based, Trypanosoma cruzi; settings: 10 µM, seven days of incubation, 95% confidence interval in brackets
From the text: L929 cell lines were used to evaluate the effect of the nucleoside derivatives on the cellular viability of mammalian host cells and to assess their activity against intracellular forms of T. cruzi (Tulahuen strain expressing E. coli β-galactosidase gene, DTU VI) as reported. 2D and 3D culture systems of rat cardiomyoblast cell lines (H9C2(2-1)) were used to evaluate cardiotoxicity and to test the derivatives’ activity on intracellular forms (Y strain, DTU II). In all assays, the cell cultures were maintained at 37 °C under an atmosphere of 5% CO2.
Bloodstream trypomastigotes of the Y strain (DTU II) were obtained by cardiac puncture of infected Swiss Webster mice on the parasitemia peak to perform drug sensitivity assays. Trypomastigote forms of the Tulahuen-β gal strain were collected from the supernatant of previously infected L929 cell cultures (host/parasite cell ratio 10:1). The intracellular forms T. cruzi were studied by the infection of L929 and H9C2 (2D and 3D) cell cultures infected for 48 and 24 h with trypomastigotes of Tulahuen-β gal and Y strains, respectively. The Leishmania mexicana-Cas9 T7 strain (LmexCas9) was derived from L. mexicana WT promastigotes by expression of the Streptococcus pyogenes Cas9 nuclease gene ‘Cas9′ and maintained on 32 μg/mL hygromycin [51]. This strain and the derived strains Cas9^ΔNT1 and Cas9^ΔNT1+TcrNT2 were cultured in HOMEM medium supplemented with 10% of FBS and 1% Penicillin-Streptomycin antibiotic in unvented flasks at 25 °C [52]. The Cas9^ΔNT1 strain is identical to Cas9 except that the LmexNT1.1/NT1.2 locus encoding the L. mexicana adenosine/ pyrimidine transporters was excised using Cas9 [17, 40]. Cas9^ΔNT1+TcrNT2 is the further modification of that strain by the expression of the T. cruzi nucleoside transporter 2 (TcrNT2) gene in it, using the vector pNUS-HcN [53]. Appropriate antibiotics were added for the selection and maintenance of transfectants.
In an initial step, nucleoside derivatives were assayed against intracellular forms of Tulahuen-β gal strain in L929 cell lines. Assays were performed in sterile 96-well microtiter plates with 4 × 10^3 cells/well and 4 × 10^4 parasites/well (host/parasite cell ratio 1:10). […] Parasite burden was analyzed by adding the substrate CPRG (chlorophenol red ß-D-galactopyranoside) followed by measurements (spectrophotometrically) at 570 nm. The results were expressed as percentage of reduction in parasite growth compared to untreated cells, and EC50 values were calculated. […] After seven days of treatment, the cultures were fixed, stained with Giemsa, and 200 cells were quantified by light microscopy. The results were expressed as % of reduction in parasite burden. […]

[2] = tested on: T. cruzi (Y strain) in male Swiss mice; assay: Mouse model of acute T. cruzi infection (Y strain); format: in vivo; settings: for protection against loss of weight induced by acute infection: 25 mg/kg/day oral, 5 days; for parasite DNA amplification in blood (qPCR): 77 dpi, heart puncture, derivatives 25 mg/kg/day, Bz 100 mg/kg/day, 5 days oral, limit of detection 0.47 eq par/mL; for reduction of parasitemia: gavage once a day, 5 consecutive days, 25 mg/kg/day, from parasitemia onset, p < 0.05
Description: Thus, a proof-of-concept study was performed in T. cruzi-infected mice. The infected animals were treated (gavage, once a day) for 5 consecutive days with the derivatives (25 mg/kg/day) or Bz (100 mg/kg/day), starting drug administration at the parasitemia onset, usually on day 5 dpi, following doses and protocols already established for the other nucleoside derivatives.
The synthesis and characterization of FH11706, FH10714 [46] and FH8513 [19] were previously reported. Benznidazole (Bz) was purchased from Laboratório Farmacêutico do Estado de Pernambuco (Brazil). […] For in vivo assays, Bz was formulated using 3% Tween 80 in distilled water and the nucleoside analogues in 10% (v/v) EtOH, with 1.1 mM aqueous citrate buffer pH 3.2 and dosed according to animal body weight.
Male Swiss Webster mice (18−20 g; 4−5 weeks of age) were obtained from the Institute of Sciences and Technologies in Biomodels (ICTB-FIOCRUZ), housed with a maximum of 5 animals per cage and kept in a specific pathogen-free (SPF) room at 20−24 °C under a 12 h light and 12 h dark cycle. All animals received sterilized water and food ad libitum. The animals were acclimatized for 7 days before the experiments. To detect possible toxic events, nucleoside analogues and Bz were orally given to non-infected Swiss male mice (n = 2) for 5 consecutive days, with a fixed dose of 50 mg/kg (0.1 mL). On day 5, all animals were euthanized to inspect toxic and subtoxic symptoms. For a proof-of-concept study, animals were infected by i.p. administration of 10^4 bloodstream trypomastigotes (Y strain), and drug administration started at the onset of parasitemia (6 dpi), only using mice with detectable parasitemia. Control mice groups were age-matched and housed under identical conditions. The following experimental groups were used (3 mice per group): untreated (infected vehicle-treated control) and treated (infected and treated with derivatives or with benznidazole). The derivatives and Bz were given orally (gavage) for five consecutive days at 25 mg/kg and 100 mg/kg, respectively, once a day. Parasitemia levels in T. cruzi assays were individually checked by light microscopic counting of parasites in 5 μL of blood, as described. For blood qPCR analysis, 500 µL of blood was diluted in a 1:2 volume of guanidine solution and heated for 60 s in boiling water, followed by DNA purification using High Pure PCR Template Preparation Kit (Roche Applied Science) and quantitative real-time multiplex PCR assays. TaqMan probes were used for quantification of both T. cruzi satellite nuclear DNA and internal amplification control (IAC), as described in Duffy et al. (2013), using the following primer and prober sets: Cruzi1 5′-[…]-3′ (750 nM), Cruzi2 5′-[…]-3′ (750 nM), Cruzi3 FAM-5′-CACACACTGGACACCAA-3′-NFQ-MGB (50 nM), IAC Fw 5′-[…]-3′ (100 nM), IAC Rv 5′-[…]-3′ (100 nM) and IAC Tq 5′-VIC-AGCATCTGTTCTTGAAGGT-NFQ-MGB-3′ (50 nM). The cycling conditions were a first step of 10 min at 95 °C, followed by 40 cycles at 95 °C for 15 s and 58 °C for 1 min. The amplifications were carried out in a Quantstudio 3 real-time PCR system (Applied Biosystems), with the threshold set at 0.02 in all runs. Standard curves were constructed for absolute quantification through the serial dilution of total DNA, ranging from 10^5 parasite equivalent to 1 parasite equivalent per mL of blood, obtained with a negative blood sample in guanidine-EDTA. Parasite load was expressed as equivalent of parasite DNA per mL of blood.

Nc1ncnc2c1c(-c1ccc(F)c(F)c1)cn2[C@@H]1O[C@H](CO)[C@@H](O)[C@H]1O [FH11706, 7-(3,4-Difluorophenyl)tubercidin]
% of Death Rate by Light Microscopy Quantification 2D [1]: 99.25 (98.83 to 99.67) %
protection against loss of weight induced by acute infection [2]: strongly protected
parasite DNA amplification in blood (qPCR) [2]: 0.038 ± 0.016 eq par/mL
reduction of parasitemia [2]: 98.4%

Nc1ncnc2c1c(-c1ccc(Cl)c(F)c1)cn2[C@@H]1O[C@H](CO)[C@@H](O)[C@H]1O [FH10714, 7-(3-fluoro,4-chlorophenyl)tubercidin]
% of Death Rate by Light Microscopy Quantification 2D [1]: 100%
parasite DNA amplification in blood (qPCR) [2]: 0.046 ± 0.038 eq par/mL
reduction of parasitemia [2]: 99.58%
sterile (parasitological) cure in mice ([2]; oral once a day for 5 days (derivatives 25 mg/kg), blood qPCR): incapable to promote a parasitological cure

Nc1ncnc2c1c(-c1ccc(Cl)c(Cl)c1)cn2[C@@H]1O[C@H](CO)C[C@H]1O [FH8513, 7-(3,4-dichlorophenyl)-3′-deoxytubercidin]
% of Death Rate by Light Microscopy Quantification 2D [1]: 99.14 (97.9 to 100) %
protection against loss of weight induced by acute infection [2]: strongly protected
parasite DNA amplification in blood (qPCR) [2]: 0.287 ± 0.017 eq par/mL
reduction of parasitemia [2]: 99.48%

O=C(Cn1ccnc1[N+](=O)[O-])NCc1ccccc1 [Bz, Benznidazole, reference compound]
% of Death Rate by Light Microscopy Quantification 2D [1]: 100%
parasite DNA amplification in blood (qPCR) [2]: 0.187 ± 0.082 eq par/mL
